The values below are quoted from earlier work in patent publication US20240410831A1, “Multi-Mode Zinc-Selective Emission-Ratiometric Fluorescent Probes for Biological Application” (Georgia Tech Research Corporation, priority 2023, published 2024).

Structures can show the parent of a compound that is named as a salt.

The conditions of data set [1]: pH 7.0, 25° C.; read-out: Kd for Zn(II) of competing ligand; cited from earlier work.
The conditions of data set [2]: in 1.0 N H2SO4; cited from earlier work.

Consider `O=C(O)CN(CCOCCOCCN(CC(=O)O)CC(=O)O)CC(=O)O` [EGTA, ethyleneglycol-bis(β-aminoethyl)-N,N,N′,N′-tetraacetic acid], for which, in data set [1], the Kd is 4.6 nM.

`C=C[C@H]1C[N@@]2CC[C@H]1C[C@H]2[C@H](O)c1ccnc2ccc(OC)cc12` [quinine sulfate]: the “quantum yield of reference standard” value in data set [2] is 0.546.
